From paper PMC4145316, “Cytotoxic and Apoptosis-Inducing Activity of Triterpene Glycosides from Holothuria scabra and Cucumaria frondosa against HepG2 Cells” (Marine Drugs, 2014)

How the values were obtained:
[1] = system: human leukemia (K562) cells; test: MTT cytotoxicity assay, K562 cells; type: cell-based; conditions: means ± SD (n = 3)
Description: (§1) Human hepatoma (HepG2), human cervical cancer (HeLa), human leukemia (K562) and human liver (HL-7702) cells were obtained by Shanghai Institute of Biochemistry and Cell Biology, and maintained in the logarithmic phase of growth in RPMI-1640 complete medium supplemented with 2 mM L-glutamine (Sigma Chemical Co., Saint Louis, MO, USA), 100 IU/mL penicillin, 100 μg/mL streptomycin and 10% FCS at 37 °C under humidified air with 5% CO2.
(§2) The effect of compounds 1–13 on the viability of HepG2, HeLa, K562 and HL-7702 cells was determined by MIT assay as described previously. Briefly, the tumor and normal cells were seeded at 1 × 10^4 cells/well in a 96-well microtiter plate and incubated at 37 °C in a humidified atmosphere with 5% CO2. After 24 h, compounds 1–13, the positive drug CDDP or RPMI-1640 medium were added into each well, and the plates were incubated at 37 °C for the indicated time. Each concentration was repeated four wells. 50 μL of MTT solution (2 mg/mL) was added to each well 4 h before incubation end, and incubated further for 4 h. The plates were centrifuged (1400× g, 5 min) and the untransformed MTT was removed carefully by pipetting. To each well, 150 μL of DMSO was added and the absorbance was evaluated in an ELISA reader at 570 nm after 15 min. The inhibitory rates and 50% inhibitory concentrations (IC50) values towards cell viability were calculated by NDST software. Each test was performed in triplicate.

[2] = system: human gastric cancer MKN-45 cells; conditions: read-out: IC50 against MKN-45 cells; cited from earlier work
[3] = system: human cervical cancer (HeLa) cells; test: MTT cytotoxicity assay, HeLa cells; type: cell-based; conditions: means ± SD (n = 3)
Description: as §1, §2

[4] = system: HepG2 cells; test: Apoptosis morphology, acridine orange and Hoechst 33342 staining; type: cell-based, human; conditions: 2.5 and 2.75 μg/mL for 8 h; AO and Hoechst 33342 staining
From the text: The induction of apoptosis in cancer cells has emerged as an exciting possibility for the development of selective cancer therapies. Apoptosis is characterized by distinct morphological features such as cell shrinkage, loss of contact with neighboring cells, formation of cytoplastic vacuoles, chromatin condensation, nuclear-membrane blebbing, oligonucleosomal DNA fragmentation, and finally breakdown of the cell into smaller units (apoptotic bodies). To further characterize the anticancer activity of 1, disorganization of the nucleus with chromatin changes in HepG2 cells treated with 1 at the concentration of 2.5 and 2.75 μg/mL for 8 h was characterized using acridine orange (OA) and Hoechst 33342 staining under fluorescence microscope.
HepG2 cells were seeded at 1 × 10^5 cells/mL into 24-well plates and then incubated at 37 °C in a humidified atmosphere with 5% CO2. After 24 h, the cells were treated with 1 at the final concentrations of 0, 2.5 and 2.75 μg/mL for 8 h. After washed twice with PBS, cells were stained with 100 μL acridine orange (AO) solution (10 μg/mL) or Hoechst 33342 solution (5 μg/mL) for 30 min, and then visualized by fluorescence microscope (Olympus, Tokyo, Japan) with 488 nm stimulation and 500–520 nm emission or 350 nm stimulation and 460 nm emission, respectively.

[5] = system: HepG2 cells; test: Mitochondrial transmembrane potential, JC-1 staining; type: cell-based, human; conditions: 2.5, 2.75 and 3 μg/mL for 6 h
Description: Therefore, we measured the Δψm in 1-treated HepG2 cells and control cells using JC-1 staining, and the results were shown in Figure 4. The aggregated JC-1 within normal mitochondria in HepG2 cells was dispersed to the monomeric form (green fluorescence) after treatment with 1 for 6 h. […] After treatment with 1 at 3 μg/mL, the red fluorescence disappeared and pure green fluorescence only occurred in HepG2 cells.
After treatment with 1 at the concentration of 0, 2.5, 2.75 and 3 μg/mL for 6 h, the cells were harvested, washed twice with PBS, and then incubated with 500 μL of JC-1 staining solution (5 μg/mL) at 37 °C for 30 min [43]. The stained cells were rinsed twice with PBS and resuspended in medium. The Δψm was monitored by determining the relative amounts of dual emissions from mitochondrial JC-1 monomers (green fluorescence) to aggregates (red fluorescence) using an Olympus fluorescent microscope under Argon-ion 488 nm laser excitation.

[6] = system: human liver (HL-7702) cells; test: MTT cytotoxicity assay, normal HL-7702 cells; type: cell-based; conditions: for Ratio (HL-7702/HepG2): ratio of IC50 values against HL-7702 and HepG2 cells, selective cytotoxicity
Description: as §1, §2

[7] = system: human hepatoma (HepG2) cells; test: MTT cytotoxicity assay, HepG2 cells; type: cell-based; conditions: means ± SD (n = 3)
Description: as §1, §2

[8] = system: HepG2 cells; test: HepG2 cell viability, MTT, 6 h and 12 h; type: cell-based, human
Description: To determine the effects of 1 on the viability of HepG2 cell, the cells were cultured with 1 at different concentrations for 6 h and 12 h, and cell viability was measured using MTT assay.
Figure 2 Effect of 1 on cell viability of HepG2 cells. HepG2 cells were treated with the various concentrations of 1 for 6 and 12 h, and cell viability was measured using the MTT assay. The values are presented as means ± SD (n = 5).
as §2

COC1C(O)C(CO)OC(OC2C(O)C(CO)OC(OC3C(C)OC(OC4C(OC5CCC6(C)C7=CC(O)C89C(=O)OC(C)(CCCC(C)C)C8(O)CCC9(C)C7CCC6C5(C)C)OCC(OS(=O)(=O)O)C4O)C(O)C3O)C2O)C1O.[Na+] (stereo not drawn) [Echinoside A (1), Echinoside A]
IC50 (μg/mL) K562 [1]: 1.61 ± 0.11 µg/mL | IC50 [2]: 1.86 µM | IC50 (μg/mL) HeLa [3]: 1.25 ± 0.16 µg/mL | apoptosis in HepG2 cells (morphology) [4]: could induce apoptosis | mitochondrial transmembrane potential (Δψm) [5]: significantly decreased | IC50 (μg/mL) HL-7702 ([6]; MTT assay, normal hepatocytes, means ± SD (n = 3)): 3.12 ± 0.65 µg/mL | Ratio (HL-7702/HepG2) [6]: 2.08 | Ratio (HL-7702/HepG2) ([6]; listed as 1): more than 2 | IC50 (μg/mL) HepG2 [7]: 1.50 ± 0.08 µg/mL | cell viability of HepG2 cells at 2.25 μg/mL ([8]; 2.25 μg/mL): hardly influenced cell viability | cell viability of HepG2 cells at 3 μg/mL ([8]; 3 μg/mL): completely inhibited | effective concentration range for inhibiting survival of HepG2 cells ([8]; MTT): 2.25−3 μg/mL
